Data as given in patent US20260356901A1, “ONCOLYTIC PEPTIDES” (The Johns Hopkins University, priority 2023, published 2026).
Like-named read-outs stand apart in the source and are kept apart here. Blank lines part the entries; values can stand above or below the compound they belong to. Square brackets hold non-standard residues; d marks the D form. Ends that are not written are not given here. Peptide text beside a SMILES is read from it. * marks the point of attachment. Dip = N[C@H](C(=O)O)C(c1ccccc1)c1ccccc1; Cbz = O=C(OCc1ccccc1)*; CH2F = FC*

Legend:
[1] = other reported oncolytic peptides; cited from earlier work
4T1 cells = assay: LDH release assay (CyQUANT) in 4T1 cells; format: cell-based, murine; conditions: pre-treated 50 μM inhibitor 30 minutes, then 100 μM CKS1 6 hours
Experimental: FIG. 3A is a graph of cell viability of 4T1 murine triple negative breast cancer cells (TNBC) after 100 μM or 20 μM CKS1 treatment measured by real-time cell analyzer (RTCA). Means±SEM, representative of N=3. FIG. 3B is a graph of lactate dehydrogenase (LDH) release in 4T1 cells pre-treated with 50 μM pan-caspase inhibitor Z-VAD for 30 minutes or 50 μM RIPK1 inhibitor Nec-1s for 30 minutes then treated with 100 μM CKS1 for 6 hours. LDH release in the supernatant was measured by the CyQUANT LDH cytotoxicity assay. Means±SEM, N=3, Dunnett's test (***p<0.005). […] The release of LDH in the supernatant was measured and was normalized to the amount of LDH released from cells treated with lysis buffer. […]
FIG. 5A is a graph of the release of LDH in the supernatant measured after treating 4T1 cells with 100 μM of the indicated peptides for 6 hours. […]
To determine whether CKS1 functions as an oncolytic peptide, the cell viability of 4T1 murine breast cancer cells was observed after CKS1 treatment using xCELLigence Real-Time Cell Analyzer (Agilent). In this method, the binding of cells to gold electrodes is detected as electrical impedance and graphed as arbitrary units of cell index in real time. […] The release of lactate dehydrogenase (LDH) was also quantified in the culture media after CKS1 treatment. […]

Solubility in water = format: physicochemical; conditions: data not shown
From the text: Peptides The peptides were synthesized by Genscript (Piscataway, NJ) using a solid-phase peptide synthesis technique. The purity was >90% as verified by HPLC and MS analyses. The peptides were solubilized in water.

CT26 cells = assay: LDH release assay in CT26 cells; format: cell-based, murine; conditions: CT26, 6 hours
Experimental: (§1) FIG. 3A is a graph of cell viability of 4T1 murine triple negative breast cancer cells (TNBC) after 100 μM or 20 μM CKS1 treatment measured by real-time cell analyzer (RTCA). Means±SEM, representative of N=3. FIG. 3B is a graph of lactate dehydrogenase (LDH) release in 4T1 cells pre-treated with 50 μM pan-caspase inhibitor Z-VAD for 30 minutes or 50 μM RIPK1 inhibitor Nec-1s for 30 minutes then treated with 100 μM CKS1 for 6 hours. LDH release in the supernatant was measured by the CyQUANT LDH cytotoxicity assay. Means±SEM, N=3, Dunnett's test (***p<0.005). FIGS. 3C-3G are graphs of LDH release in human osteosarcoma U2OS cells, murine fibrosarcoma MCA205 cells, murine colon carcinoma CT26 cells, murine normal NIH/3T3 fibroblasts, and HUVECs, respectively, treated with the indicated concentration of CKS1 for 6 hours. The release of LDH in the supernatant was measured and was normalized to the amount of LDH released from cells treated with lysis buffer. Means±SEM, N=3, Dunnett's test (**p<0.01, ***p<0.005). FIG. 3H is a graph of the incorporation of BrdU in HUVECs treated with CKS1. Means±SEM, N=3, Dunnett's test (**p<0.01, ***p<0.005).
(§2) LDH assay 1.5×10^4 cells were seeded in a 96 well plate and incubated overnight. The cells were washed once, and the medium was replaced with serum free media. Cells were treated for the indicated time and concentration. […]

HUVECs = assay: LDH release assay in HUVECs; format: cell-based, human; conditions: 6 hours
Experimental: as §1, §2

[2] = system: NIH/3T3 normal fibroblasts; assay: LDH release assay in NIH/3T3 cells; format: cell-based, murine; conditions: 6 hours
Experimental: as §1, §2

U2OS cells = assay: LDH release assay in U2OS cells; format: cell-based, human; conditions: 6 hours
Experimental: as §1, §2

MCA205 cells = assay: LDH release assay in MCA205 cells; format: cell-based, murine; conditions: MCA205, 6 hours
Experimental: as §1, §2

healthy cells = assay: LDH assay against cancer cells not included in NCI-60 and healthy cells; format: cell-based
Experimental: LDH assay 1.5×10^4 cells were seeded in a 96 well plate and incubated overnight. The cells were washed once, and the medium was replaced with serum free media. Cells were treated for the indicated time and concentration. CyQUANT LDH cytotoxicity assay (Invitrogen, Carlsbad, CA) was used following the manufacturer's instructions.

Compound: NCCCC[C@H](NC(=O)[C@@H](NC(=O)[C@H](Cc1c[nH]c2ccccc12)NC(=O)[C@H](CCCCN)NC(=O)[C@H](CCCCN)NC(=O)[C@H](Cc1c[nH]c2ccccc12)NC(=O)[C@H](Cc1c[nH]c2ccccc12)NC(=O)[C@H](CCCCN)NC(=O)[C@@H](N)CCCCN)C(c1ccccc1)c1ccccc1)C(N)=O [LTX-315] (H-KKWWKKW[Dip]K-NH2)
- solubility in water [1]: not soluble in water

Compound: CN1C(=O)NC(Cc2c[nH]c3c(Cl)cccc23)C1=O (centres unmarked) [Nec-1s, necrostatin-1 stable]
- inhibition of CKS1-induced LDH release by pretreatment (4T1 cells): did not inhibit the release of LDH

Compound: CC(NC(=O)C(NC(=O)OCc1ccccc1)C(C)C)C(=O)NC(CC(=O)O)C(=O)CF (stereo not drawn) [Z-VAD] (Cbz-Val-Ala-Asp-CH2F; configuration not given here)
- inhibition of CKS1-induced LDH release by pretreatment (4T1 cells): did not inhibit the release of LDH

- solubility in water (Solubility in water): not soluble in water
Compound: IVKKIIEKMLNS [SEQ ID NO: 42, IVKKIIEKMLNS]

- solubility in water (Solubility in water): high solubility in water
Compound: NGRKACLNPASPIVKKIIEKMLNS [CKS1]
- cytotoxicity (LDH release) (CT26 cells): effective
- cell death (LDH release) in normal cells (HUVECs): did not induce cell death
- cell death (LDH release) in normal cells [2]: did not induce cell death
- cytotoxicity (LDH release) (U2OS cells): effective
- cytotoxicity (LDH release) (MCA205 cells): effective

Compound: NGRKAKLNPASIVKKIIKKILKS [NF27]
- toxicity against healthy cells compared to cancer cells (healthy cells): significantly lower toxicity
